The values below come from patent US20210009959A1, “METHODS FOR ENHANCING OSTEOGENIC DIFFERENTIATION USING VITAMIN D” (priority 2019, published 2021).

Common to all, as to type: cell-based
The subject of assay [1] is human adipose stem cells (hASCs). Put plainly: ALP activity of hASCs seeded in BCP scaffold. The protocol: In one embodiment, a method of static culture of hASCs by pre-treatment with vitamin D3 (calcitriol) and attachment of hASCs to the scaffold used in one-step surgical procedure comprises the following steps. At one step, isolating hASCs as explained in FIG. 1. In an embodiment, the hASCs from three donors at passage 3 are used for further processing. As an optional step, the obtained hASCs are either or not incubated for a period of about 30 mins with low concentrated calcitriol of about 10 nM at room temperature.
At next step, the calcitriol treated hASCs are washed twice with Phosphate Buffered Saline (PBS) to remove calcitriol. Further, the washed hASCs are centrifuged and resuspended in Dulbecco's Minimum Essential Medium (DMEM) without any supplements. At another step, the resuspended cells are seeded on the scaffold and allowed to attach to the scaffolds for a period of about 30 minutes. At next step, the scaffolds with attached cells are transferred to 12-well plates with Costar® Transwell® containers (Corning Life Sciences, Lowell, Mass., USA) containing expansion medium (DMEM) supplemented with 10% Fetal Clone I (FCI), antibiotics (1% penicillin/streptomycin/fungizone (PSF)), 50 μM ascorbic acid (Merck, Darmstadt, Germany), and 10 mM β-glycerol phosphate (Merck, Darmstadt, Germany) (PLGA/β-TCP). At next step, the hASCs seeded scaffolds are incubated at 5% CO2 in a humidified incubator at predefined temperature of about 37° C. for a period of about 3 weeks.
Referring to FIGS. 5A and 5B, the effects of calcitriol treatment on ALP activity of hASCs, where the calcitriol pre-treatment is conducted for a short period of 30 minutes and a long period of about 3 weeks. […] The ALP activity of continuous treated cells with calcitriol is increased by 2.6-fold relative to non-treated cells after 2 weeks of culture.

Assay [2] has the same test system. Put plainly: ALP staining using NBT/BCIP in hASCs. As to conditions: 30 min treatment; 2 and 3 weeks of culture; compared to continuous treatment. From the text: Referring to FIG. 6, the effect of calcitriol treatment on ALP activity in hASCs by ALP staining using nitro blue tetrazolium chloride/5-bromo-4-chloro-3-indolyl phosphate (NBT/BCIP) is disclosed. […] The increase in ALP activity is confirmed by ALP staining after 14 days of culture. […] The cell distribution is confirmed by 4′,6-diamidino-2-phenylindole (DAPI) staining.

The test system is the same in assay [3]. The assay is described as follows: Metabolic activity / cell proliferation of hASCs in 3D PLGA/β-TCP scaffold, dynamic (perfusion bioreactor) and static (flask) culture. The method, then: In one embodiment, dynamic culture of pre-treated hASCs with calcitriol, using the modified perfusion bioreactor comprises the following steps. In one embodiment, the scaffolds are 3D PLGA/β-TCP. The modified perfusion bioreactor […] comprises five scaffolds, loaded with a total of 70 ml of culture medium as shown in FIG. 2. At another step, 30 ml of the culture medium is replaced twice a week for a total period of two weeks. At another step, the culture medium in the modified perfusion bioreactor 200 is distributed to the five scaffolds with the flow rate of about 5 ml/min using the peristaltic pump 202.
In one embodiment, the method of static culture of pre-treated hASCs is continued in a flask bioreactor with the same volume of culture medium utilized in the dynamic culture. Further, the methods of culturing the hASCs are divided into different groups. In one embodiment, the methods of culturing of hASCs are divided into four groups such as, static culture of non-treated hASCs, static culture of pre-treated hASCs with calcitriol, dynamic culture of non-treated hASCs and dynamic culture of pre-treated hASCs with calcitriol.
Referring to FIG. 9, the effects of dynamic pre-treated/non-treated hASCs versus static pre-treated/non-treated hASCs on metabolic activity or cell proliferation of hASCs is disclosed, where the pre-treated hASCs are seeded in 3D PLGA/β-TCP scaffold. In one embodiment, the hASCs are pre-treated with or without 10 nM calcitriol for 30 minutes and cultured in the modified perfusion bioreactor 200 (dynamic culture) and flask bioreactor (static culture). […] Also, the culturing groups are compared and there is no significant difference between the groups. However, the 14 days of dynamic culture of both non-treated hASCs and pre-treated hASCs increases cell proliferation by 1.1-fold relative to 7 days of culture.
In addition, alamarBlue assay, ALP assay, ALP staining, analysis of osteogenic and angiogenic gene expression and related protein content to evaluate the synergistic effects of flow-induced shear stress using a modified perfusion bioreactor and calcitriol pre-treatment are used for the examinations.

With `C=C1/C(=C\C=C2/CCC[C@]3(C)[C@@H]([C@H](C)CCCC(C)(C)O)CC[C@@H]23)C[C@@H](O)C[C@@H]1O` [calcitriol, 1,25-dihydroxyvitamin D3], the “ALP activity, increase” value is 18.5 fold in assay [1] (30 min pre-treatment, after 2 weeks of culture, vs non-treated cells); 2.4 fold in assay [1] (30 min pre-treatment, after 3 weeks of culture); 2.6 fold in assay [1] (continuous treatment with 10 nM, after 2 weeks, vs non-treated cells). Moreover, in assay [1] (continuous treatment with 10 nM, at 3 weeks), the “ALP activity, change” value was found to be 0.4 fold. In addition, the “ALP activity by ALP staining (NBT/BCIP)” value in assay [2] is “notably increases”. The “cell proliferation, increase” value in assay [3] (dynamic culture of pre-treated hASCs, 14 days relative to 7 days of culture) is reported as 1.1 fold; in assay [3] (dynamic culture of pre-treated hASCs, 14 days, relative to the first day), 10.8 fold; in assay [3] (dynamic culture of pre-treated hASCs, after 7 days, relative to the first day), 9.9 fold; in assay [3] (static culture of pre-treated hASCs (10 nM, 30 min), after 7 days, relative to the first day) it was 10.6 fold; in assay [3] (static culture of pre-treated hASCs, 14 days, relative to the first day), 1.6 fold. The cell proliferation result in assay [3] (perfusion culture of pre-treated vs perfusion culture of non-treated hASCs, after 7 and 14 days) is on record as “slightly decelerates”.
